These are literature values, as cited in patent US20260344672A1, “CROP ENHANCEMENT” (SYNGENTA CROP PROTECTION AG, priority 2023, published 2026).

The data set relates to plant. The note with it: reported in the literature.

As for `N#Cc1nn(-c2c(Cl)cc(C(F)(F)F)cc2Cl)c(N)c1[S+]([O-])C(F)(F)F` (stereo not drawn) [fipronil], the “early flowering and grain maturation” value is “stimulate early flowering and grain maturation”; the “leaf area and plant height” value was “increase leaf area and plant height”; the “photosynthetic capacity (plant greenness)” value is on record as “increase photosynthetic capacity (plant greenness)”; the “root system and root hair development” value is “enhance overall root system and root hair development”. Besides, the “tiller number and productivity” value is “increase tiller number and productivity”.

Consider `COC(=O)N(OC)c1ccccc1COc1ccn(-c2ccc(Cl)cc2)n1` [pyraclostrobin], for which the “plant health, tolerance to environmental stresses” value was “improve plant health e.g. to improve the tolerance to environmental stresses”.
